Key:
HEK293 = experiment: Cytotoxicity against HEK293 cells after 24 hrs by MTT assay; assay type: cell-based; settings: Homo sapiens, HEK293, 24 h
Rattus norvegicus [1] = experiment: Antidiabetic activity in Sprague-Dawley albino rat assessed as inhibition of blood glucose level at 50 mg/kg, ip administered 10 mins prior to oral glucose challenge measured after 10 mins by glucometer relative to control; assay type: functional
[2] = biological target: T1, Tyrosine-protein phosphatase non-receptor type 1 (Rattus norvegicus) (UniProt P20417); experiment: (§1) Inhibition of PTP1B in rat liver homogenates using p-nitro phenyl phosphate as substrate preincubated for 30 mins followed by substrate addition measured after 10 mins; assay type: tissue-based
T1 sequence (whole entry): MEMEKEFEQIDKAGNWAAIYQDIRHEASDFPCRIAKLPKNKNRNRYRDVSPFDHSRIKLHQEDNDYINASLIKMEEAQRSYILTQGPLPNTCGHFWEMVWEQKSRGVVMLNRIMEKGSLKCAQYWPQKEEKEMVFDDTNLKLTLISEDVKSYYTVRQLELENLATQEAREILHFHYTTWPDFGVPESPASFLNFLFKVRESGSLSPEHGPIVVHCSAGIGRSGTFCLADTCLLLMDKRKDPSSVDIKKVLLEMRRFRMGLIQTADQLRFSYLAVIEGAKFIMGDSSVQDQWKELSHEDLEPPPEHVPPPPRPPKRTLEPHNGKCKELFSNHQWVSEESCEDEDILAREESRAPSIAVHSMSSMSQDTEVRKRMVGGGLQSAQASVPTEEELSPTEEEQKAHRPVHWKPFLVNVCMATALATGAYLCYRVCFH

[3] = biological target: T2, Tyrosine-protein phosphatase non-receptor type 1 (Rattus norvegicus, UniProt P20417); experiment: as §1; assay type: tissue-based
T2 sequence (P20417 whole entry): T1 sequence (whole entry)

A549 = experiment: Cytotoxicity against human A549 cells after 24 hrs by MTT assay; assay type: cell-based; settings: A549, 24 h
[4] = biological target: T1, Tyrosine-protein phosphatase non-receptor type 1 (Rattus norvegicus); experiment: (§2) Inhibition of PTP1B in rat liver homogenates using p-nitro phenyl phosphate as substrate at 10 uM preincubated for 30 mins followed by substrate addition measured after 10 mins relative to control; assay type: tissue-based
[5] = biological target: Tyrosine-protein phosphatase non-receptor type 1 (Rattus norvegicus) (UniProt P20417); experiment: as §2; assay type: tissue-based; remark: listed apart in the source
Rattus norvegicus [6] = experiment: Antidiabetic activity in Sprague-Dawley albino rat assessed as inhibition of blood glucose level at 300 mg/kg, ip administered 10 mins prior to oral glucose challenge measured after 10 mins by glucometer relative to control; assay type: functional

## FC(F)(F)c1ccc(-n2cc(COc3ccc(-c4nc5c(ccc6ccccc65)o4)cc3)nn2)cc1
HEK293
  IC50: > 1000 µM
Rattus norvegicus [1]
  inhibition in vivo at 50 mg/kg: 78.6%
[2]
  inhibition: Dose-dependent effect
[3]
  IC50: 8.61 µM
A549
  IC50: > 1000 µM
[4]
  inhibition: 68.3%

## Cc1ccc(-n2cc(COc3ccc(-c4nc5c(ccc6ccccc65)o4)cc3)nn2)cc1
HEK293
  IC50: > 1000 µM
Rattus norvegicus [1]
  inhibition in vivo at 50 mg/kg: 62.6%
[2]
  inhibition: Dose-dependent effect
[3]
  IC50: 20.4 µM
A549
  IC50: > 1000 µM
[4]
  inhibition: 41.6%

## SODIUM ORTHOVANAD
[5]
  inhibition: 60.7%

## CN(C)C(=N)NC(=N)N [METFORMIN]
Rattus norvegicus [6]
  inhibition in vivo at 300 mg/kg: 57.1%

## COc1cccc2c1C(=O)c1c(O)c3c(c(O)c1C2=O)C[C@@](O)(C(=O)CO)C[C@@H]3O[C@H]1C[C@H](N)[C@H](O)[C@H](C)O1 [DOXORUBICIN]
HEK293
  IC50: 1.01 µM
A549
  IC50: 3.98 µM

Reference: ChEMBL document CHEMBL2429839, “Synthesis and characterization of 2-(4-((1-alkyl or aryl-1H-1,2,3-triazol-4-yl)methoxy)phenyl)naphtho[1,2-d]oxazoles for protein tyrosine phosphatase 1B inhibitory activity” (Med Chem Res, 2013)
